Measurements as given in ChEMBL document CHEMBL4184314, “Synthesis of new 4-aryloxy-N-arylanilines and their inhibitory activities against succinate-cytochrome c reductase” (Bioorg Med Chem Lett, 2018).

Key:
[1] = Inhibition of porcine succinate-cytochrome c reductase using succinate and cytochrome c as substrate by spectrophotometric analysis; design: species or system Sus scrofa
Sus scrofa [2] = species on record: Sus scrofa; assay: Inhibition of porcine succinate-cytochrome c reductase at 10 uM using succinate and cytochrome c as substrate by spectrophotometric analysis relative to control
Sus scrofa [3] = species on record: Sus scrofa; assay: Inhibition of porcine succinate-cytochrome c reductase complex 2 at 10 uM using succinate and dichlorophenolindophenol as substrate by spectrophotometric analysis relative to control
Sus scrofa [4] = species on record: Sus scrofa; assay: Inhibition of porcine succinate-cytochrome c reductase complex 3 at 10 uM using decylubiquinol and cytochrome c as substrate by spectrophotometric analysis relative to control

| SMILES | IC50 [1] [nM] | inhibition (Sus scrofa [2]) [%] | inhibition (Sus scrofa [3]) [%] | inhibition (Sus scrofa [4]) [%] |
| --- | --- | --- | --- | --- |
| N#Cc1ccccc1Oc1ccc(Nc2ccccc2)cc1 | > 10000 | – | – | – |
| c1ccc(COc2ccc(Oc3ccc(Nc4ccccc4)cc3)cc2)cc1 | > 10000 | – | – | – |
| c1ccc(Nc2ccc(Oc3ccccc3)cc2)cc1 | > 10000 | – | – | – |
| FC(F)(F)c1cccc(Nc2ccc(Oc3ccccc3)cc2)c1 | 362 | – | – | – |
| Fc1cccc(Oc2ccc(Nc3ccccc3)cc2)c1F | 1450 | – | – | – |
| Cc1ccc(Nc2ccc(Oc3ccccc3)cc2)cc1 | > 10000 | – | – | – |
| Fc1ccc(Nc2ccc(Oc3ccccc3)cc2)cc1 | > 10000 | – | – | – |
| FC(F)(F)c1ccc(Nc2ccc(Oc3ccccc3)cc2)cc1 | 201 | – | – | – |
| Clc1ccc(Oc2c(Cl)cc(Nc3ccccc3)cc2Cl)c(Cl)c1 | 41 | – | – | – |
| Brc1ccccc1Oc1ccc(Nc2ccccc2)cc1 | > 10000 | – | – | – |
| Fc1cccc(Nc2ccc(Oc3ccccc3)cc2)c1 | 723 | – | – | – |
| Fc1ccc(Br)cc1Oc1ccc(Nc2ccccc2)cc1 | > 10000 | – | – | – |
| Clc1cccc(Nc2ccc(Oc3ccccc3)cc2)c1 | > 10000 | – | – | – |
| CC(C)(C)c1ccc(Nc2ccc(Oc3ccccc3)cc2)cc1 | > 10000 | – | – | – |
| COc1ccc(Oc2ccc(Nc3ccccc3)cc2)cc1 | > 10000 | – | – | – |
| Brc1cc(Nc2ccccc2)ccc1Oc1ccccc1 | 323 | – | – | – |
| CC(C)CC(C)c1sccc1NC(=O)c1cn(C)nc1C(F)(F)F (stereo not drawn) [PENTHIOPYRAD] | 1320 | 82 | 90 | < 10 |
| Clc1ccc(Nc2ccc(Oc3ccccc3)cc2)cc1 | 464 | – | – | – |
| Clc1ccc(Oc2ccc(Nc3ccccc3)cc2)c(Cl)c1 | 172 | – | – | – |
| Clc1cc(Cl)c(Oc2c(Cl)cc(Nc3ccccc3)cc2Cl)c(Cl)c1 | 21 | 89 | 37 | 13 |
| Cc1cccc(Nc2ccc(Oc3ccccc3)cc2)c1 | > 10000 | – | – | – |
| Fc1ccccc1Oc1ccc(Nc2ccccc2)cc1 | > 10000 | – | – | – |
| Cc1ccccc1Nc1ccc(Oc2ccccc2)cc1 | > 10000 | – | – | – |
| Clc1cc(Nc2ccccc2)cc(Cl)c1Oc1ccc2ccccc2c1 | 30 | 78 | 42 | 15 |
| CO/C=C(\C(=O)OC)c1ccccc1Oc1cc(Oc2ccccc2C#N)ncn1 [Azoxystrobin] | 287 | 99 | 23 | 92 |
| Clc1ccc(Oc2ccc(Nc3ccccc3)cc2Cl)c(Cl)c1 | 43 | – | – | – |
